Common to all, as to assay type: cell-based
In assay [1] the test system is Meiothermus silvanus biofilms. Briefly: Prevention of biofilm formation, 96-microwell plate with peg lids, Crystal Violet staining. The settings on record: for Biofilm quantity after 48 h contact time, Abs. at 595 nm / Biofilm reduction after 48 h contact time / Biofilm quantity after 48 h contact time in SPW, Abs. at 595 nm / Biofilm reduction after 48 h contact time in SPW: SPW; for Biofilm quantity after 48 h contact time, Abs. at 595 nm / Biofilm reduction after 48 h contact time: 45° C., 150 rpm. An excerpt:
(§1) Pure cultures of Meiothermus silvanus, a microbe species commonly found in paper machine biofilms (Ekman J, Journal of Industrial Microbiology & Biotechnology 34:203-211) and Pseudoxanthomonas taiwanensis, another species commonly found in paper machine environments (Desjardins, E & Beaulieu, C, Journal of Industrial Microbiology & Biotechnology 30:141-145) were used to study the efficacy of various chemicals to prevent biofilm formation.
(§2) Biofilm tests were done in either synthetic commercial R2-broth (Lab M Ltd, UK) or fibre-containing synthetic paper machine water, SPW (prepared according to Peltola et al., J. Ind. Microbiol. Biotechnol. 2011, 38: 1719-1727) using 96-microwell plate wells with peg lids (Thermo Fischer Scientific Inc., USA). Plates were incubated at 45° C. with a rotary shaking (150 rpm) providing high flow in each well.
(§3) For experiments of preventing biofilm formation wells of 96-microwell plates with peg-lids were filled with R2-broth or SPW, inoculated with the pure bacterial cultures and treated with different amounts of chemical compounds to be tested. Peg-lid was put on. After 24 hours the wells were emptied and a fresh solution of pure culture containing SPW or R2 broth with different amounts of test chemicals were added to the wells and the original peg-lid was put back in place. After an additional 24 hours, i.e., 48 hours after starting the test, the wells were emptied, rinsed and the peg lid and wells were left to dry.
(§4) The amount of biofilm formed on the microwells, and peg surfaces was quantified with a staining solution by adding 200 μl of 1% Crystal Violet (Merck Millipore KGaA, Germany) in methanol to each well and placing the peg-lid back on. After 3 minutes the wells were emptied, and the wells and pegs were rinsed 3 times with tap water. The attached Crystal Violet was dissolved into ethanol and the absorbance at 595 nm was measured. The values shown in the following tables are average absorbance from 8 replicate wells and pegs.
(§5) All absorbance values in Examples 1-6 are given actual measured values. In calculation for biofilm reduction percentages it was taken in account that the SPW alone for 2 days without any bacterial inoculum gave a background value of 0.14.

The test system of assay [2] is Pseudoxanthomonas taiwanensis biofilms. Described as above. To be noted: for Biofilm quantity after 48 h contact time, Abs. at 595 nm / Biofilm reduction after 48 h contact time: SPW, 45° C., 150 rpm.
Text: as §1, §2, §3, §4, §5

Assay [3] concerns Meiothermus silvanus biofilms. Briefly: Removal of existing (preformed) biofilm, 96-microwell plate with peg lids, Crystal Violet staining. The settings on record: SPW, 45° C., 150 rpm; for Biofilm quantity after 24 h pre-growth and 24 h contact time, Abs. at 595 nm / Biofilm reduction after 24 h pre-growth and 24 h contact time: separated isomer.
Text: as §1, §2
(§6) For experiments of removing already existing (preformed) biofilm wells of 96-microwell plates with peg-lids were filled with SPW, inoculated with the pure bacterial cultures. Biofilm was grown for 24 hours without addition of any chemical compound to be tested. In some experiments after 24 hours the procedure was repeated by emptying the wells and by addition of a fresh solution of SPW inoculated with pure bacterial culture, again without any test chemical compound. The original peg-lid was put back in place and biofilm was allowed to grow for additional 24 h, i.e., in total 48 h.
(§7) After 24 or 48 hours after starting the test, the wells were emptied and a fresh solution of SPW, inoculated with the pure bacterial cultures and with different amounts of chemical compounds to be tested were added and the original peg-lid was placed back in place. After an additional 2 or 24 hours the wells were emptied, rinsed and the peg lid and wells were left to dry.
as §4, §5

Assay [4] concerns Pseudoxanthomonas taiwanensis biofilms. The description is as above. To be noted: SPW; for Biofilm quantity after 48 h pre-growth and 24 h contact time, Abs. at 595 nm / Biofilm reduction after 48 h pre-growth and 24 h contact time: 45° C., 150 rpm.
Text: as §1, §2, §6, §7, §4, §5

Setting [5] is: separated isomer, dosage 0.1 mg/l active.
The mark [6] stands for this setting: separated isomer, dosage 0.2 mg/l active.
The mark [7] stands for this setting: Compound B dosage 0.1 mg/l active.
Where [8] appears, read: Compound B dosage 0.25 mg/l active.
Where [9] appears, read: Compound B dosage 1 mg/l active.
The mark [10] stands for this setting: Compound B dosage 3 mg/l active.
[11] abbreviates: Compound B dosage 10 mg/l active.

Consider `Cc1ccc(S(=O)(=O)C=CC#N)cc1` [Z-isomer of Compound A, 3-[(4-methylphenyl)sulfonyl]-2-propenenitrile], for which the “Biofilm quantity after 48 h contact time, Abs. at 595 nm” value in assay [1] (setting [5]) was determined as 0.16; in assay [1] (setting [6]), 0.15; in assay [2] (setting [5]), 0.16; in assay [2] (setting [6]), 0.16. The “Biofilm reduction after 48 h contact time” value is reported as 99.1% in assay [1] (setting [5]), 99.4% in assay [1] (setting [6]), 99.3% in assay [2] (setting [5]) and 99.3% in assay [2] (setting [6]). Also, the figures for the “Biofilm quantity after 24 h pre-growth and 24 h contact time, Abs. at 595 nm” value in assay [3] (dosage 0.2 mg/l active) and in assay [3] (dosage 1 mg/l active) were 0.81 and 0.27, respectively. For the same compound, the “Biofilm reduction after 24 h pre-growth and 24 h contact time” value in assay [3] (dosage 0.2 mg/l active) is on record as 71.3%; in assay [3] (dosage 1 mg/l active) it was 94.6%.

With `Nc1ccc(S(=O)(=O)Nc2nccs2)cc1` [Compound B, 4-amino-N-2-thiazolyl-benzenesulphonamide], the “Biofilm quantity after 48 h contact time, Abs. at 595 nm” value in assay [1] (setting [7]) is 0.62; in assay [1] (setting [8]), 0.18; in assay [1] (setting [9]), 0.15; in assay [1] (setting [10]), 0.16; in assay [1] (setting [11]), 0.18; in assay [2] (setting [8]), 2.35. Besides, the “Biofilm quantity after 48 h contact time, Abs. at 595 nm” value in assay [2] (setting [9]) is listed as 2.04; in assay [2] (setting [10]), 0.84; in assay [2] (setting [11]), 0.54. Moreover, the “Biofilm reduction after 48 h contact time” value was determined as 34.4% in assay [1] (setting [7]); 94.0% in assay [1] (setting [8]); 99.1% in assay [1] (setting [9]); 97.9% in assay [1] (setting [10]); 94.0% in assay [1] (setting [11]); 2.6% in assay [2] (setting [8]). Also, the figures for the “Biofilm reduction after 48 h contact time” value in assay [2] (setting [9]), in assay [2] (setting [10]) and in assay [2] (setting [11]) were 16.3%, 69.3% and 82.4%, respectively.

For Gramicidin [reference compound], the “Biofilm quantity after 48 h contact time in SPW, Abs. at 595 nm” value in assay [1] (Gramicidin dosage 0.2 mg/l) turned out to be 1.33; in assay [1] (Gramicidin dosage 1 mg/l), 1.41; in assay [1] (Gramicidin dosage 3 mg/l) it was 0.45; in assay [1] (Gramicidin dosage 10 mg/l), 0.19. Further, the “Biofilm reduction after 48 h contact time in SPW” value in assay [1] (Gramicidin dosage 0.2 mg/l) is 2.5%; in assay [1] (Gramicidin dosage 1 mg/l) it was −4.1%; in assay [1] (Gramicidin dosage 3 mg/l), 74.6%; in assay [1] (Gramicidin dosage 10 mg/l), 95.9%; in assay [2] (Gramicidin dosage 3 mg/l) it was 5.4%; in assay [2] (Gramicidin dosage 10 mg/l) it was −1.8%. Besides, in assay [2] (Gramicidin dosage 25 mg/l), the “Biofilm reduction after 48 h contact time in SPW” value is given as −2.2%. For the same compound, the results for the “Biofilm quantity after 48 h contact time in SPW, Abs at 595 nm” value in assay [2] (Gramicidin dosage 3 mg/l), in assay [2] (Gramicidin dosage 10 mg/l) and in assay [2] (Gramicidin dosage 25 mg/l) were 2.25, 2.41 and 2.42, respectively.

Turning to `Cc1ccc(S(=O)(=O)C=CC#N)cc1` [Compound A, 3-[(4-methylphenyl)sulfonyl]-2-propenenitrile], the “Biofilm quantity after 48 h contact time, Abs. at 595 nm” value in assay [1] (dosage 0.01 mg/l active) is 0.80; in assay [1] (dosage 0.03 mg/l active), 0.75; in assay [1] (dosage 0.08 mg/l active), 0.58; in assay [1] (dosage 0.13 mg/l active) it was 0.22; in assay [1] (dosage 0.20 mg/l active), 0.15; in assay [2] (dosage 0.01 mg/l active), 1.42. Further, the “Biofilm quantity after 48 h contact time, Abs. at 595 nm” value is reported as 1.26 in assay [2] (dosage 0.03 mg/l active), 0.88 in assay [2] (dosage 0.08 mg/l active), 0.55 in assay [2] (dosage 0.13 mg/l active) and 0.39 in assay [2] (dosage 0.20 mg/l active). Also, the “Biofilm reduction after 48 h contact time” value in assay [1] (dosage 0.01 mg/l active) stood at 21.4%; in assay [1] (dosage 0.03 mg/l active), 27.4%; in assay [1] (dosage 0.08 mg/l active), 47.6%; in assay [1] (dosage 0.13 mg/l active) it was 90.5%; in assay [1] (dosage 0.20 mg/l active), 98.8%; in assay [2] (dosage 0.01 mg/l active), 4.5%. Moreover, the “Biofilm reduction after 48 h contact time” value turned out to be 16.4% in assay [2] (dosage 0.03 mg/l active), 44.8% in assay [2] (dosage 0.08 mg/l active), 69.4% in assay [2] (dosage 0.13 mg/l active) and 81.3% in assay [2] (dosage 0.20 mg/l active). Also, the biofilm reduction effect result in assay [1] (dosage of 0.13 mg/l active, synthetic paper machine water, high temperature, fibres present, high flow) is recorded as “over 90%”. Moreover, the “Biofilm quantity after 48 h pre-growth and 2 h contact time, Abs. at 595 nm” value in assay [3] (dosage 0.5 mg/l active) amounted to 1.20; in assay [3] (dosage 1 mg/l active), 1.11; in assay [3] (dosage 2 mg/l active), 0.99. In addition, the “Biofilm reduction after 48 h pre-growth and 2 h contact time” value was determined as 8.0% in assay [3] (dosage 0.5 mg/l active), 16.3% in assay [3] (dosage 1 mg/l active) and 26.6% in assay [3] (dosage 2 mg/l active). The “Biofilm quantity after 48 h pre-growth and 24 h contact time, Abs. at 595 nm” value in assay [4] (dosage 0.2 mg/l active) worked out at 1.73; in assay [4] (dosage 0.5 mg/l active), 0.13. In addition, the results for the “Biofilm reduction after 48 h pre-growth and 24 h contact time” value in assay [4] (dosage 0.2 mg/l active) and in assay [4] (dosage 0.5 mg/l active) were 32.2% and 100.2%, respectively. For the same compound, the “removal of already formed biofilm (in words)” value in assay [4] (single dosage of 0.5 mg/l active compound, 48-hour pre-growth, 24 hours after addition) is “removed all of the biofilm”.

Consider `N#CC(Br)(Br)C(N)=O` [DBNPA, 2,2-dibromo-3-nitrilopropionamide, reference compound], for which the “dosage required to reach same (over 90%) biofilm reduction efficacy” value in assay [1] (active compound, synthetic paper machine water, high temperature, fibres present, high flow) was 1 mg/L.

As for `Cc1ccc(S(=O)(=O)C=CC#N)cc1` [E-isomer of Compound A, 3-[(4-methylphenyl)sulfonyl]-2-propenenitrile], the “Biofilm quantity after 48 h contact time, Abs. at 595 nm” value is reported as 0.40 in assay [1] (setting [5]), 0.16 in assay [1] (setting [6]), 0.36 in assay [2] (setting [5]) and 0.16 in assay [2] (setting [6]). The “Biofilm reduction after 48 h contact time” value in assay [1] (setting [5]) amounted to 88.9%; in assay [1] (setting [6]) it was 99.3%; in assay [2] (setting [5]), 90.6%; in assay [2] (setting [6]) it was 99.1%. In addition, the “Biofilm quantity after 24 h pre-growth and 24 h contact time, Abs. at 595 nm” value in assay [3] (dosage 0.2 mg/l active) is reported as 0.90; in assay [3] (dosage 1 mg/l active) it was 0.26. Besides, the “Biofilm reduction after 24 h pre-growth and 24 h contact time” value in assay [3] (dosage 0.2 mg/l active) turned out to be 67.6%; in assay [3] (dosage 1 mg/l active), 95.0%.
